# Columns and labels:
# HeLa = experiment: Cytotoxicity against human HeLa cells after 24 to 48 hrs by MTT assay; assay type: functional, cell-based
# Streptococcus mutans [1] = experiment: Antibacterial activity against Streptococcus mutans UA159 after 24 hrs by agar diffusion method; assay type: functional; conditions: UA159, 24 h
# Streptococcus sobrinus [2] = experiment: Antibacterial activity against Streptococcus sobrinus 6715 after 24 hrs by agar diffusion method; assay type: functional; conditions: Streptococcus sobrinus, 6715, 24 h
# Streptococcus oralis = experiment: Antibacterial activity against Streptococcus oralis PB182 after 24 hrs by agar diffusion method; assay type: functional; conditions: PB182, 24 h
# Streptococcus gordonii = experiment: Antibacterial activity against Streptococcus gordonii 10558 after 24 hrs by agar diffusion method; assay type: functional; conditions: Streptococcus gordonii, 10558, 24 h
# Staphylococcus aureus = experiment: Antibacterial activity against Staphylococcus aureus 25923 after 24 hrs by agar diffusion method; assay type: functional; conditions: Staphylococcus aureus, 25923, 24 h
# Actinomyces naeslundii = experiment: Antimicrobial activity against Actinomyces naeslundii 12104 after 24 hrs by agar diffusion method; assay type: functional; conditions: Actinomyces naeslundii, 12104, 24 h
# Streptococcus mutans [3] = experiment: Antibacterial activity against Streptococcus mutans UA159 assessed as total biofilm adherence inhibition after 18 hrs by microtechnique; assay type: functional
# Streptococcus sobrinus [4] = experiment: Antibacterial activity against Streptococcus sobrinus 6715 assessed as total biofilm adherence inhibition after 18 hrs by microtechnique; assay type: functional
MIC (Streptococcus mutans [1]),MIC (Streptococcus sobrinus [2]),MIC (Streptococcus oralis),MIC (Streptococcus gordonii),MIC (Staphylococcus aureus),MIC (Actinomyces naeslundii),SMILES,IC50 (HeLa),MBC (Streptococcus mutans [1]),MBC (Streptococcus sobrinus [2]),MBC (Streptococcus oralis),MBC (Streptococcus gordonii),MBC (Staphylococcus aureus),MBC (Actinomyces naeslundii),Activity (Streptococcus mutans [3]),Activity (Streptococcus sobrinus [4])
–,–,–,–,–,–,CC(C)=CCC1=C(O)[C@@]2(C(=O)c3ccccc3)C(=O)[C@](CC=C(C)C)(C[C@H](CC=C(C)C)C2(C)C)C1=O,3.3 µM,–,–,–,–,–,–,–,–
3.3 µg/mL,3.3 µg/mL,1.65 µg/mL,1.65 µg/mL,0.73 µg/mL,1.65 µg/mL,CC(C)=CC[C@H]1C[C@@]2(CC=C(C)C)C(=O)[C@](C(=O)c3ccccc3)(C(=O)C3=C2O[C@H](C(C)(C)O)C3)C1(C)C [HYPERIBONE A],0.176 µM,53 µg/mL,53 µg/mL,26 µg/mL,26 µg/mL,5.85 µg/mL,6.6 µg/mL,1.65 µg/mL,1.65 µg/mL

# From ChEMBL document CHEMBL1155244, “Identification of a bioactive compound isolated from Brazilian propolis type 6” (Bioorg Med Chem, 2009)
